Assay [1] has as its system TGF beta signalling (pSMAD2). In kind it is cell-based.
Assay [2] relates to MATN2 in MDA-MB-231 cells. In words: MATN2 level in MDA-MB-231 cells. The assay is classed as cell-based, human. As to conditions: at a much higher concentration. As to the method:
Proteins were extracted from cultured cells using cell lysis buffer (Cell Signalling Technology) with the addition of protease and phosphatase inhibitor cocktails (Pierce). Protein concentrations were measured using Pierce 660 nm protein assay reagent and SpectaMax M5 plate reader. […] Separated proteins were transferred to nitrocellulose membranes using a Trans-Blot turbo transfer system (Bio-Rad). Following blocking with Odyssey blocking buffer (Li—COR), membranes were incubated with two primary antibodies of different species at 4° C. over night. Corresponding fluorescence secondary antibodies (Li—COR) of different excitation and emission wavelengths were used to visualize the protein of interest on an Odyssey CLx infrared imaging system (Li—COR). Quantification of band fluorescent intensity was achieved using Li-COR ImageStudio. The following primary antibodies were used, anti-LOX (Sigma), anti-human MATN2 (R&D), anti-EGFR and anti-pY1068EGFR (Cell Signalling Technology), and anti-GAPDH (Millipore).

Each structure is given as a SMILES string.

On to `N#CCCN` [BAPN, beta-aminopropionitrile], for which, in assay [1], the “TGF beta signalling as indicated by pSMAD2” value is “increased TGF beta signalling”. Besides, the “reduction of MATN2” value in assay [2] was “same effect”.

(Values after US11608330B2, “Methylamine derivatives as lysysl oxidase inhibitors for the treatment of cancer” (The Institute of Cancer Research: Royal Cancer Hospital, priority 2016, dated 2023).)
